Experimental data from patent US20210261636A1, “NEOANTIGENS EXPRESSED IN MULTIPLE MYELOMA AND THEIR USES” (Janssen Biotech, Inc., priority 2020, published 2021).

Assays:
[1] = system: CD8+ T cells; test: Exogenous autologous healthy donor restimulation assay, TNFα and IFNγ production by CD8+ T cells; format: cell-based, human; design: Frequency (TNFα+ IFNγ+ CD8 T cells): unit not given here; conditions: for Fold change (CD8+) vs. DMSO: maximum CD8+ T-cell response (TNFα and IFNγ); for Fold change (CD8+) vs. DMSO / Frequency (TNFα+ IFNγ+ CD8 T cells): donor independent, peptide pool 10 μg/mL, healthy donors; for Frequency (TNFα+ IFNγ+ CD8 T cells): maximum CD8+ T-cell response; for Immunogenic (yes/no): positive if CD8+ and/or CD4+ double positive TNFα/IFNγ frequency >=3-fold over DMSO and at least 0.01%
Procedure: (§1) Immunogenicity responses were measured by estimating TNFα IFNγ double positive cells in the CD4+ and/or CD8+ T-cell populations. A response is considered positive if TNFα IFNγ double positive fraction was greater than or equal to three-fold over unstimulated cells (DMSO negative control) with a minimum frequency >=0.01%. […]
(§2) Overlapping 15-mer peptides were designed to span each indicated neoantigen. Their ability to activate T cells was assessed using known methods, such as the assay defnied as exogenous autologous normal donor restimulation assay. The peptides were used as pools using TNFα and IFNγ production by CD8^+ and CD4^+ T cells as a readout. Maximum frequency of CD8^+TNFα^+IFNγ^+ and CD4^+TNFα^+IFNγ^+ T cells and maximum fold change over background for each pool of peptides were analyzed, which were calculated as the highest frequency of CD8^+ TNFα^+IFNγ^+ and CD4^+ TNFα^+IFNγ^+ T cells and resulting fold change across the normal donors evaluated for the peptide.
(§3) CD1c+Dendritic Cells (CD1c+DC) isolated from human healthy PBMCs were thawed using media (IMDM (Gibco) supplemented with glutamine, HEPES, 5% human serum (Sigma), and 1× Pen-Strep). DC cells were resuspended in media supplemented with IL-4 (Peprotech, 20 ng/mL) and GM-CSF (Gibco, 20 ng/mL), plated in 6 well microplates, and rested overnight at 37° C. and 5% CO2 incubator. The following day, DC cells were counted and plated in a 96 well round bottom microplate at a concentration of 30,000 viable cells per well. Lyophilized neoantigen peptide pools (15-mer peptides with 8-mer overlapping peptide sequences) were solubilized in 100% DMSO with a stock concentration of 20 mg/mL Neoantigen peptides pools were added to DCs for a final concentration of 10 μg/mL and rested for 2 hours at 37° C. and 5% CO2 incubator. CEF Peptide Pool “Plus” (Cellular Technologies, Ltd.) was utilized as a positive control (each viral peptide at a final concentration of 4 ug/ml) and DMSO at the same final concentration (0.05%) as the experimental peptides was utilized as a negative control. After 2 hours, DC cells were irradiated with 50 gray of ionizing radiation. Autologous CD3+ Pan-T cells isolated from human normal PBMCs were thawed using media. Following irradiation, autologous Pan-T cells were added to the irradiated DCs at 300,000 viable cells per well. Human IL-15 (Peprotech) was added to all wells at final concentration of 10 ng/ml. Plates were incubated at 37° C. and 5% CO2 incubator for a total of 12 days. Media was refreshed every 2-3 days with IL-15 (R&D System, 10 ng/mL final concentration) and IL-2 (R&D systems, 10 IU/mL final concentration).
(§4) On Day 11, cells were re-stimulated with identical experimental peptide pools or controls, at same concentration as peptide stimulation on Day 1. Protein Inhibitor Cocktail (eBioscience) was added to every well and plate was incubated overnight for 14-16 hours at 37° C. and 5% CO2 incubator. On Day 12, cells were stained for surface and intracellular flow cytometry analysis. The cells were washed with PBS and stained with Live/Dead Fixable Aqua Dead Cell stain (Thermo-Fisher). Following the live/dead stain, cells were blocked using Biotin-Free Fc Receptor Blocker (Accurate Chemical & Scientific Corp). Extracellular cellular flow panel (1 μL/antibody per well in 50 μL) consisted of CD3 PerCP-Cy5.5 (Biolegend), CD4 BV421 (Biolegend), and CD8 APC-Cy7 (Biolegend). After extracellular staining, cells were fixed and permeabilized using Foxp3/Transcription Factor Staining Buffer Set (eBioscience) and stained for intracellular proteins (1:50 dilution) using TNFα FITC (R&D Systems) and IFNγ BV785 (Biolegend). Cells were washed and resuspended in stain buffer, analyzed, and recorded in a BD Celesta flow cytometer.
(§5) Flow cytometry analysis was conducted on FlowJo v10.6 software. Cells were gated on live, singlet, CD3+, CD4+ and CD8+ T cells. The CD8+ and CD4+ T cells were analyzed for TNFα and IFNγ expression. […]

[2] = system: CD4+ T cells; test: Exogenous autologous healthy donor restimulation assay, TNFα and IFNγ production by CD4+ T cells; format: cell-based, human; design: Frequency (TNFα+ IFNγ+ CD4 T cells): unit not given here; conditions: donor independent, peptide pool 10 μg/mL, healthy donors; for Fold change (CD4+) vs. DMSO: maximum CD4+ T-cell response (TNFα and IFNγ); for Frequency (TNFα+ IFNγ+ CD4 T cells): maximum CD4+ T-cell response
Procedure: as §1, §2, §3, §4, §5

Sequence | Fold change (CD8+) vs. DMSO [1] | Frequency (TNFα+ IFNγ+ CD8 T cells) [1] | Immunogenic (yes/no) [1] | Fold change (CD4+) vs. DMSO [2] | Frequency (TNFα+ IFNγ+ CD4 T cells) [2]
GEPGEDAGIGRPEEREREEEMADQ [AS135, alternative splicing, ZBP1] | 2.68 | 0.092 | No | 3.73 | 0.03
GEVKWSVGSRTSLLL [FUS38, gene fusion CD79B-> GH1] | 23.41 | 0.18 | Yes | 4.06 | 0.007
GFFETEMAVPFFSRKIRKVRRAIMKWTFCCYFY [AS118, alternative splicing, IARS] | 106.428 | 1.01 | Yes | 7.692 | 0.15
GGPPFVGPLRGPRAQPSLSGLCGRRTGSRDTIKIPGQT [FUS42, gene fusion RBM42-> ETV2] | 14.72 | 0.027 | Yes | 9.54 | 0.11
GKSTPPRKEIFDDASP [FUS11, gene fusion GAB1-> SMARCA5] | 7.36 | 0.013 | Yes | 11.4 | 0.008
GNVLVRYVSLYVYYILLN [AS97, alternative splicing, ANKRD28] | 13446.33 | 23.8 | Yes | 96.12 | 0.57
GRAGQGGGMISVSQEFIK [FUS7, gene fusion FAM98A-> LOC105374454] | 3.04 | 0.093 | Yes | 17.18 | 0.21
GTTRLLSGEDFS [AS111, alternative splicing, CD55] | 1.16 | 0.012 | Yes | 16.71 | 0.06
IDPSSPLHTYYERITKGRNPERRYMKPERISPGHEAMEKNLEDNL [AS129, alternative splicing, TET1] | 19.08 | 0.27 | Yes | 9.79 | 0.022
IEKSISARITEQ [FUS36, gene fusion TNFRSF17-> SNX29] | 8.7 | 0.013 | Yes | 4.69 | 0.008
IENEGGQVRSRPAPS [AS56, alternative splicing, ADGRE5] | 5 | 0.069 | Yes | 3.71 | 0.019
IIMALAILDLFAVLKIEAHKQLLLKSFCYGAGK [AS113, alternative splicing, CLCC1] | 5.07 | 0.38 | Yes | 5.7 | 0.009
ILAQKKKDELSS [AS93, alternative splicing, TJP1] | 1.44 | 0.014 | Yes | 9.9 | 0.015
IMLIGNKSNCQKQLLRDMKILNEFYHGLILTLQLS [AS126, alternative splicing, RAB2B] | 161.72 | 0.49 | Yes | 6.861 | 0.04
ISKRLKSRRRSGWQLNRAGNRGLSPGLGLFPRGCCRWGGAYTRLPSANQT [FUS20, gene fusion PTGES2-> SLC25A25-AS1] | 511.064 | 4.85 | Yes | 11.664 | 0.068
KKEDVNFQVKQLIH [AS96, alternative splicing, ANKRD28] | 7.34 | 0.15 | Yes | 5.47 | 0.027
KLLYEVSQKMVL [AS50, alternative splicing, PDZRN4] | 3.032 | 0.038 | Yes | 8.29 | 0.041
KRYGCVFQVSIRHLSFPVTDILP [AS77, alternative splicing, TRAF3] | 369.64 | 1.12 | Yes | 7.547 | 0.046
LARQISFKSLI [FUS14, gene fusion UBE2J1-> GABRR2] | 3.27 | 0.005 | Yes | 256.93 | 0.19
LDPPHDEKALACPQWTLLWIFWTAKAL [AS95, alternative splicing, WDR64] | 1.58 | 0.13 | Yes | 19.58 | 0.014
LDQCVETLCSLSKSD [FUS44, gene fusion ZGPAT-> LIME1] | 4.82 | 0.097 | Yes | 4.8 | 0.024
LEDKELGRISVCPWTEGLEKMEKTLLCSSSG [AS88, alternative splicing, CADPS2] | 4.55 | 0.025 | Yes | 79.18 | 0.12
LGRLEEAKSFETEEN [AS121, alternative splicing, OGT] | 194.72 | 0.59 | Yes | 1.41 | 0.02
LGRLEEAKVPLKMLLF [AS122, alternative splicing, OGT] | 3.63 | 0.044 | Yes | 13.71 | 0.048
LLPPGQESAIIGPPGMQ [FUS45, gene fusion IFNAR2-> IL10RB] | 88.8 | 0.43 | Yes | 10.56 | 0.1
